From US20040250313A1, “Insecticidal proteins and synergistic combinations thereof” (priority 2001, published 2004)
Several values for one entry are separate records, joined by “and”; a condition that tells them apart may be missing. Identical values can stand only once. Positions of bridges follow the written chain, without caps; N, C: chain ends. Residues, ends and D or L forms follow the SMILES beside them. No end group written: not given here.

Assays:
Format in all cases: in vivo
[1] = tested on: Heliothis virescens; experiment: Comparative insect bioassay on treated cotton leaves, neonate larvae in minipots; conditions: after three days; for corrected % kill: Abbott's formula corrected
Protocol: These were carried out between the synthetic peptide having the sequence depicted as SEQ ID No. 2 (also referred to as the GGK-445 peptide) and the insecticidal peptide obtainable from the fungus Paecilomyces farinosus (referred to as “445”) and described in International Patent Application Publication Number WO01/00841. This protein, having the sequence depicted as SEQ ID No. 41, was synthesised, purified and the N-terminal Glycine was acetylated.
(§1) Prior to the assay, twenty neonate Heliothis virescens larvae were gently brushed into each of three ‘minipot’ containers per treatment (i.e. three replicates per treatment). The peptide to be tested was diluted using sterile, deionised water to create a range of test concentrations for determination of a kill curve.
(§2) Three freshly excised cotton leaves per treatment had 0.05 ml of the appropriate peptide solution applied by pipette to the centre of the axial surface of each leaf. The droplet was then spread over a circular area in excess of the diameter of a minipot with a fine artists paint brush (a fresh paint brush being used for each compound to avoid contamination), the concentrations being applied from lowest to highest. The leaves were left in a fume cupboard just long enough for the surface deposit to dry, but care was taken to avoid excessive leaf wilting.
Once dry the leaves were placed, contaminated surface down over the appropriately labelled, pre-infested minipot and a lid snapped over it. The minipots were placed in plastic trays and placed in a controlled environment room at 25-27° C.
After three days the numbers of live larvae remaining were counted and percent mortality determined. Percent mortality for the peptide treatments was corrected in comparison with the water-treated control using the Abbott's formula. Damage to the leaf was also assessed and represented as percent feeding inhibition.

[2] = tested on: Heliothis virescens; experiment: LC50 determination, cotton leaf bioassay as in Example 2; conditions: individual test, logit analysis
Protocol: as §1, §2
Once dry the leaves were placed, contaminated surface down over the appropriately labelled, pre-infested minipot and a lid snapped over it. […]
After three days the numbers of live larvae remaining were counted and percent mortality determined. […] Damage to the leaf was also assessed and represented as percent feeding inhibition.
Mean LC50 values were determined for the synthetic peptide, GGK-445, having the amino acid sequence designated in SEQ ID No. 2. […]

[3] = tested on: Helicoverpa armigera; experiment: as above
[4] = tested on: Spodoptera exigua; experiment: as above; conditions: individual test, logit analysis
[5] = tested on: Spodoptera littoralis; experiment: as above
[6] = individual test, logit analysis

Y1945F - synthesised, acetylated-445: insecticidal peptide obtainable from the fungus Paecilomyces farinosus, described in WO01/00841; SEQ ID No. 41, synthesised, purified, N-terminal Glycine acetylated (Ac-GKICTPAGVKCPAALPCCPGLRCIGGVNNKVCR; cysteine pairing not given here)
% feeding reduction compared to control ([1]; dose 0.15 ppm): 0.0%
corrected % kill ([1]; dose 0.15 ppm): 0.0%
% feeding reduction compared to control ([1]; dose 0.46 ppm): 0.0%
corrected % kill ([1]; dose 0.46 ppm): 5.6%
% feeding reduction compared to control ([1]; dose 1.37 ppm): 0.0%
corrected % kill ([1]; dose 1.37 ppm): 13.0%
% feeding reduction compared to control ([1]; dose 4.12 ppm): 43.8%
corrected % kill ([1]; dose 4.12 ppm): 48.1%
% feeding reduction compared to control ([1]; dose 12.35 ppm): 68.8%
corrected % kill ([1]; dose 12.35 ppm): 75.9%
% feeding reduction compared to control ([1]; dose 37.04 ppm): 68.8%
corrected % kill ([1]; dose 37.04 ppm): 72.2%
% feeding reduction compared to control ([1]; dose 111.11 ppm): 83.8%
corrected % kill ([1]; dose 111.11 ppm): 98.1%
% feeding reduction compared to control ([1]; dose 333.33 ppm): 88.8%
corrected % kill ([1]; dose 333.33 ppm): 98.1%
% feeding reduction compared to control ([1]; dose 1000 ppm): 91.3%
corrected % kill ([1]; dose 1000 ppm): 100.0%

CC[C@H](C)[C@@H]1NC(=O)[C@@H]2CSSC[C@@H]3NC(=O)[C@H](CCCCN)NC(=O)[C@H](C(C)C)NC(=O)CNC(=O)[C@H](C)NC(=O)[C@@H]4CCCN4C(=O)[C@H]([C@@H](C)O)NC(=O)[C@@H](NC(=O)[C@@H](NC(=O)[C@H](CCCCN)NC(=O)CNC(=O)CN)[C@@H](C)CC)CSSC[C@H](NC(=O)[C@H](CSSC[C@@H](C(=O)N[C@@H](CCCNC(=N)N)C(=O)O)NC(=O)[C@H](C(C)C)NC(=O)[C@H](CCCCN)NC(=O)[C@H](CC(N)=O)NC(=O)[C@H](CC(N)=O)NC(=O)[C@H](C(C)C)NC(=O)CNC(=O)CNC1=O)NC(=O)[C@@H]1CCCN1C(=O)[C@H](CC(C)C)NC(=O)[C@H](C)NC(=O)[C@H](C)NC(=O)[C@@H]1CCCN1C3=O)C(=O)N1CCC[C@H]1C(=O)NCC(=O)N[C@@H](CC(C)C)C(=O)N[C@@H](CCCNC(=N)N)C(=O)N2 [GGK-445] (H-GGKICTPAGVKCPAALPCCPGLRCIGGVNNKVCR-OH; disulfide 5-19, 12-24, 18-33; N-terminus and C-terminus assumed)
% feeding reduction compared to control ([1]; dose 0.15 ppm): 0.0%
% feeding reduction compared to control ([1]; dose 0.46 ppm): 0.0%
% feeding reduction compared to control ([1]; dose 1.37 ppm): 0.0%
% feeding reduction compared to control ([1]; dose 4.12 ppm): 6.4%
% feeding reduction compared to control ([1]; dose 12.35 ppm): 6.4%
% feeding reduction compared to control ([1]; dose 37.04 ppm): 25.1%
% feeding reduction compared to control ([1]; dose 111.11 ppm): 50.1%
% feeding reduction compared to control ([1]; dose 333.33 ppm): 62.5%
% feeding reduction compared to control ([1]; dose 1000 ppm): 81.3%
LC50 [2]: 171.15 ppm
LC50 [3, 6]: 113.24 ppm and 421.93 ppm
mean LC50 ([3]; mean of individual tests): 657.21 ppm
LC50 [4]: 339.21 ppm and 972.5 ppm and 271.32 ppm
LC50 [5, 6]: 283.26 ppm and 626.72 ppm and 371.71 ppm and 201.91 ppm
mean LC50 ([5]; mean of individual tests): 343.75 ppm
